Measured values: US7608604B2, “Antiparasitic agents” (Pfizer Limited, priority 2007, dated 2009)

Tested on: Haemonchus contortus L3
Test: Haemonchus contortus L3 (HcL3) in vitro test
Assay type: cell-based
Conditions: minimum effective dose; exsheathed L3 larvae in vitro, 37° C., observed up to 4 days, n=2
Procedure: The Haemonchus contortus L3 (HcL3) test is used to measure the biological activities of the compounds claimed. The assay involves in vitro testing against H. contortus conducted according to the following general procedure.
HcL3 larvae were collected from infected sheep and, after cleaning, stored in water at 12° C. for up to one month. Viable infective larvae were exsheathed using 10% hypochlorite in Glucose Tyrodes balanced salt solution containing antibiotics and resuspended in basal medium (20 g/l bacto-tryptone, 5 g/l yeast extract, 57 g/l glucose, 0.8 g/l di-Potassium hydrogen orthophosphate, 0.8 g/l potassium dihydrogen orthophosphate and […] Hepes with antibiotics). 95 μl worm suspension was added to each well of a 96 well plate.
Test compounds were dissolved in dimethylsulfoxide to give a working stock solution of 20 mg/ml. The stock concentration was diluted 1:10 in Basal media to give 2.0 mg/ml (10% DMSO). 5 μl of the stock compound solution was added to the worm suspension to give a final concentration of 100 μg/ml. Plates were sealed with pressure sensitive film and incubated at 37° C. Observations were made 2 hrs, 24 hrs, 48 hrs, 72 hrs and 4 days post-treatment using an inverted microscope. Activity was recorded if a significant proportion of the worms were dead or adversely affected by the compound when compared to the control well containing 1% DMSO. Compounds were initially tested at 100 μg/ml, wherefrom relevant dose responses (100, 30, 10, 3, 1, 0.3, 0.1 μg/ml) were conducted in duplicate experiments to generate n=2. Data was recorded as minimum effective dose.

Structure (SMILES)	in vitro H.c. (L3) MED
CC(C#N)(COc1cc(C#N)ccc1C(F)(F)F)NC(=O)c1ccc(S(F)(F)(F)(F)F)cc1 (racemic) [Example 1a, N-{1-cyano-2-[5-cyano-2-(trifluoromethyl)phenoxy]-1-methylethyl}-4-(pentafluorothio)benzamide]	3 µg/mL
CC(C#N)(COc1cc(C#N)ccc1Cl)NC(=O)c1ccc(S(F)(F)(F)(F)F)cc1 (racemic) [Example 2, N-[2-(2-Chloro-5-cyanophenoxy)-1-cyano-1-methylethyl]-4-(pentafluorothio)benzamide]	1 µg/mL
CC(C#N)(COc1ccc(C#N)cc1C(F)(F)F)NC(=O)c1ccc(S(F)(F)(F)(F)F)cc1 (racemic) [Example 3a, N-{1-Cyano-2-[4-cyano-2-(trifluoromethyl)Phenoxy]-1-methylethyl}-4-(pentafluorothio)benzamide]	1 µg/mL
CC(C#N)(COc1c(F)cc(C#N)cc1C(F)(F)F)NC(=O)c1ccc(S(F)(F)(F)(F)F)cc1 (racemic) [Example 4, N-{1-Cyano-2-[4-cyano-2-fluoro-6-(trifluoromethyl)phenoxy]-1-methylethyl}-4-(pentafluorothio)benzamide]	3 µg/mL
C[C@](C#N)(COc1cc(C#N)ccc1C(F)(F)F)NC(=O)c1ccc(S(F)(F)(F)(F)F)cc1 (single isomer, unassigned) [Example 1c, N-{1-cyano-2-[5-cyano-2-(trifluoromethyl)phenoxy]-1-methylethyl}-4-(pentafluorothio)benzamide]	> 30 µg/mL
CC(C#N)(COc1ccc(C#N)cc1C(F)(F)F)NC(=O)c1ccc(S(F)(F)(F)(F)F)cc1 (single isomer, unassigned) [Example 3b, N-{1-Cyano-2-[4-cyano-2-(trifluoromethyl)Phenoxy]-1-methylethyl}-4-(pentafluorothio)benzamide]	1 µg/mL
CC(C#N)(COc1ccc(C#N)cc1C(F)(F)F)NC(=O)c1ccc(S(F)(F)(F)(F)F)cc1 (single isomer, unassigned) [Example 3c, N-{1-Cyano-2-[4-cyano-2-(trifluoromethyl)Phenoxy]-1-methylethyl}-4-(pentafluorothio)benzamide]	> 30 µg/mL
CC(C#N)(COc1cc(C#N)ccc1C(F)(F)F)NC(=O)c1ccc(S(F)(F)(F)(F)F)cc1 (stereo not drawn) [Example 1b, N-{1-cyano-2-[5-cyano-2-(trifluoromethyl)phenoxy]-1-methylethyl}-4-(pentafluorothio)benzamide]	1 µg/mL

Same assay, conditions: minimum effective dose; unit not given

Structure (SMILES)	in vitro H.c. (L3) MED
CC(C#N)(COc1ccc(C(N)=O)cc1C(F)(F)F)NC(=O)c1ccc(S(F)(F)(F)(F)F)cc1 (racemic) [Example 43, 4-(2-Cyano-2-{[4-(pentafluorothio)benzoyl]amino}propoxy)-3-(trifluoromethyl)benzamide]	1
CC(C#N)(COc1cc(C#N)cc(C(F)(F)F)c1Cl)NC(=O)c1ccc(S(F)(F)(F)(F)F)cc1 (racemic) [Example 44, N-{2-[2-Chloro-5-cyano-3-(trifluoromethyl)phenoxy]-1-cyano-1-methylethyl}-4-(pentafluorothio)benzamide]	10
CC(C#N)(COc1cccc(C#N)c1)NC(=O)c1ccc(S(F)(F)(F)(F)F)cc1 (racemic) [Example 50, N-[1-Cyano-2-(3-cyanophenoxy)-1-methylethyl]-4-(pentafluorothio)benzamide]	3
CC(C#N)(COc1cc(C#N)cc(C(N)=O)c1)NC(=O)c1ccc(S(F)(F)(F)(F)F)cc1 (racemic) [Example 53, 3-Cyano-5-(2-cyano-2-{[4-(pentafluorothio)benzoyl]amino}propoxy)benzamide]	30
